Test system: Coronavirus (MHV-3 Strain)
Type: cell-based, Coronavirus MHV-3 Strain genus Betacoronavirus
Settings: concentration of 5%

N=C(NCCCCCCNC(=N)NC(=N)Nc1ccc(Cl)cc1)NC(=N)Nc1ccc(Cl)cc1 [5% Chlorhexidine, 1,1′-hexamethylene-bis(5-(p-chlorophenyl)-biguanide)]
time after which activity was lost: 10 min
